Measured values: patent US11459338B2, “Heterocyclic compounds as PRMT5 inhibitors” (JUBILANT EPISCRIBE LLC, priority 2018, dated 2022)

Tests used:
PRMT5/MEP50 = molecular target: T1, PRMT5/MEP50 (Homo sapiens, UniProt O14744); test: PRMT5/MEP50 enzyme assay on peptide substrates (3H-SAM Flashplate); type: biochemical; details: PRMT5/MEP50 10 nM, H4 1-15aa peptide 100 nM, 3H-SAM 1 μM
T1 construct: Full-length human PRMT5 (NP_006100)
Text: General materials like S-adenocylmethionine (SAM), S-adenosylhomocysteine (SAH), Tris-HCl, DTT, […] (BSA) and Tween-20 were purchased from Sigma-Aldrich. 3H-SAM and 384-well streptavidin Flashplates were purchased from Perkin Elmer. Substrates that were used were Peptide representative of human Histone 4 residues 1-15 which was purchased from Rockland antibodies and assays.
PRMT5/MEP50 Enzyme assay on Peptide Substrates.
The assays were all performed in a buffer consisting of 50 mMTris-HCl, pH 8, 1 mM DTT, 0.01% BSA, 0.01% Tween-20, prepared on the day of use. Test compounds were diluted 3-fold in assay buffer (final DMSO concentration of 1%) and added into a 384-well OptiPlate (PerkinElmer, #6007290). A cocktail (10 μL) of PRMT5/MEP50 enzyme and the peptide was added to the wells. The compounds were allowed to incubate with PRMT5/MEP50 for 30 min at room temperature, then 5 μL of ^3H-SAM was added to initiate the reaction. The final concentrations of the components were as follows: PRMT5/MEP50-10 nM, H4, 1-15aa peptide-100 nM, ^3H-SAM-1 μM. The assays were stopped by the addition of 1 mM SAH. 25 μL of the reaction from the 384-well OptiPlate was then transferred to a 384-well Flashplate and the biotinylated peptides were allowed to bind to the streptavidin surface for at least 1 h, before being washed twice with 50 mMTris-HCl, pH 8, 0.1% Tween-20. The plates were then read in a PerkinElmer Topcount plate reader to measure the quantity of ^3H-labeled peptide bound to the Flashplate surface measured as disintegrations per minute (dpm), also referred to as counts per minute (cpm).
The IC50 values were calculated using a 4-parameter variable slope fit algorithm (cpm—counts per minute, cmpd—signal in assay well, and cpmmax and cpmmin mare the respective minimum and maximum signal controls).

Z-138 cells = test: Z-138 long term proliferation assay (Cell Titer Glo); type: cell-based; details: Homo sapiens, 192 h; Z-138 cells, cell viability, day 8; read-out: PRMT5 Z138 GI50 Day 8 μM
Experimental: A compound source plate was prepared by performing ten-point 3-fold dilution in DMSO, such that the final top concentration of the compound was 10 μM, and DMSO was 0.3%. The total volume of compounds added was 20 μL. The cells were incubated for 96 h at 37° C., 5% CO2. […] The cells were re-treated with the compounds and incubated for an additional four days. Cell viability was measured on both day 4 and day 8, by adding 25 μL of Cell Titer Glo reagent to an equal volume of cell suspension. Luminescence was read on a PerkinElmer Victor3 multiplate reader. The concentration of compound inhibiting cell viability by 50% was determined using a 4-parameter, variable slope fit of the normalized dose response curves.

T1 sequence (O14744 whole entry): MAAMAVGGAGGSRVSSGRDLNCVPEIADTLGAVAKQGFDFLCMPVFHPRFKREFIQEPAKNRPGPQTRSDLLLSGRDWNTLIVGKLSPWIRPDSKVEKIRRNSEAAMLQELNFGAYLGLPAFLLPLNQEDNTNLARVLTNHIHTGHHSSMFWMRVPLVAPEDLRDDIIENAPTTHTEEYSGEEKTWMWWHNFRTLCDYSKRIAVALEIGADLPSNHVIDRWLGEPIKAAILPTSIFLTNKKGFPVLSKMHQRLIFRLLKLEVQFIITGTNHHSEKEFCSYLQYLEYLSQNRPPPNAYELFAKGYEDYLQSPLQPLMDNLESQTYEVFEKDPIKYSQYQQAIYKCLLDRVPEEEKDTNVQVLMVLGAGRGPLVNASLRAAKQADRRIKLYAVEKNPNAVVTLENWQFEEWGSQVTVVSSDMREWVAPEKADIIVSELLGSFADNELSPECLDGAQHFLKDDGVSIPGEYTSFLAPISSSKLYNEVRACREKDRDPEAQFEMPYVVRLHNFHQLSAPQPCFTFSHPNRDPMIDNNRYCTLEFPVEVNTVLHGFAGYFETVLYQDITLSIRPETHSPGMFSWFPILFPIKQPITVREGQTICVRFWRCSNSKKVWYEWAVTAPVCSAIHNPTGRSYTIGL
T1 sequence (Q9BQA1 whole entry partner): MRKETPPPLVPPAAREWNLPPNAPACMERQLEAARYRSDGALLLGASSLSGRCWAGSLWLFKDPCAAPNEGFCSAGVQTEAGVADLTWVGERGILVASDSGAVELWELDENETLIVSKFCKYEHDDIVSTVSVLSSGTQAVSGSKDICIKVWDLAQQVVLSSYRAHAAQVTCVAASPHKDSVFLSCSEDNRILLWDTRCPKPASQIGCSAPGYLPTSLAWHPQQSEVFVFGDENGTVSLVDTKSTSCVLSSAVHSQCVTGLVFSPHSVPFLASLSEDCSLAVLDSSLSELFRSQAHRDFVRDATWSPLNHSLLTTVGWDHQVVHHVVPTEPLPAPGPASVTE

IC50 (PRMT5/MEP50) | SMILES | GI50 (Z-138 cells)
1 to 5 µM | O=C(NC[C@H](O)CN1CCc2ccccc2C1)c1cn2cc(N3CC(F)(F)C3)ncc2n1 [Example 58, (S)-6-(3,3-difluoroazetidin-1-yl)-N-(3-(3,4-dihydroisoquinolin-2(1H)-yl)-2-hydroxypropyl)imidazo[1,2-a]pyrazine-2-carboxamide] | 1 to 5 µM
0.01 to 1 µM | Cc1c(C(=O)NC[C@H](O)CN2CCc3ccccc3C2)nc2cnc(-c3ccn(C)c(=O)c3)cn12 [Example 65, (S)—N-(3-(3,4-dihydroisoquinolin-2(1H)-yl)-2-hydroxypropyl)-3-methyl-6-(1-methyl-2-oxo-1,2-dihydropyridin-4-yl)imidazo[1,2-a]pyrazine-2-carboxamide] | 0.01 to 1 µM
0.01 to 1 µM | CC(=O)N1CCC(c2ccc3nc(C(=O)NC[C@H](O)CN4CCc5ccccc5C4)cn3c2)CC1 [Example 27, (S)-6-(1-acetylpiperidin-4-yl)-N-(3-(3,4-dihydroisoquinolin-2(1H)-yl)-2-hydroxypropyl)imidazo[1,2-a]pyridine-2-carboxamide] | 0.01 to 1 µM
1 to 5 µM | CN(C[C@H](O)CN1CCc2ccccc2C1)C(=O)c1cn2nc(C(F)(F)F)ccc2n1 [Example 91, (R)—N-(3-(3,4-dihydroisoquinolin-2(1H)-yl)-2-hydroxypropyl)-N-methyl-6-(trifluoromethyl)imidazo[1,2-b]pyridazine-2-carboxamide] | > 5 µM
1 to 5 µM | O=C(NC[C@H](O)CN1CCc2ccccc2C1)c1cc2nc(C(F)(F)F)ccn2n1 [Example 60, (S)—N-(3-(3,4-dihydroisoquinolin-2(1H)-yl)-2-hydroxypropyl)-5-(trifluoromethyl)pyrazolo[1,5-a]pyrimidine-2-carboxamide] | 1 to 5 µM
1 to 5 µM | Cc1ccc2nc(C(=O)NC[C@H](O)CN3CCc4ccccc4C3)cn2n1 [Example 56, (S)—N-(3-(3,4-dihydroisoquinolin-2(1H)-yl)-2-hydroxypropyl)-6-methylimidazo[1,2-b]pyridazine-2-carboxamide] | > 5 µM
0.01 to 1 µM | Cn1ccc(-c2ccc3nc(C(=O)NCC(O)CNC4Cc5ccccc5C4)cn3c2)cc1=O (stereo not shown) [Example 99, N-(3-((2,3-dihydro-1H-inden-2-yl)amino)-2-hydroxypropyl)-6-(1-methyl-2-oxo-1,2-dihydropyridin-4-yl)imidazo[1,2-a]pyridine-2-carboxamide] | 0.01 to 1 µM
1 to 5 µM | Cn1cc(-c2ccn3nc(C(=O)NC[C@H](O)CN4CCc5ccccc5C4)cc3n2)cn1 [Example 62, (S)—N-(3-(3,4-dihydroisoquinolin-2(1H)-yl)-2-hydroxypropyl)-5-(1-methyl-1H-pyrazol-4-yl)pyrazolo[1,5-a]pyrimidine-2-carboxamide] | 1 to 5 µM
0.01 to 1 µM | CC(=O)N1CCC(c2ccc3nc(C(=O)NCC(O)CNC4Cc5ccccc5C4)cn3c2)CC1 (stereo not shown) [Example 98, 6-(1-acetylpiperidin-4-yl)-N-(3-((2,3-dihydro-1H-inden-2-yl)amino)-2-hydroxypropyl)imidazo[1,2-a]pyridine-2-carboxamide] | 0.01 to 1 µM
0.01 to 1 µM | Cc1ccc(-c2ccc3nc(C(=O)NC[C@H](O)CN4CCc5ccccc5C4)cn3c2)nn1 [Example 30, (S)—N-(3-(3,4-dihydroisoquinolin-2(1H)-yl)-2-hydroxypropyl)-6-(6-methylpyridazin-3-yl)imidazo[1,2-a]pyridine-2-carboxamide] | 0.01 to 1 µM
0.01 to 1 µM | Cc1c(C(=O)NC[C@H](O)CN2CCc3ccccc3C2)nc2cnc(-c3cnn(C)c3)cn12 [Example 64, (S)—N-(3-(3,4-dihydroisoquinolin-2(1H)-yl)-2-hydroxypropyl)-3-methyl-6-(1-methyl-1H-pyrazol-4-yl)imidazo[1,2-a]pyrazine-2-carboxamide] | 0.01 to 1 µM
0.01 to 1 µM | CC(C)n1cc(-c2ccc3nc(C(=O)NC[C@H](O)CN4CCc5ccccc5C4)cn3c2)nn1 [Example 37, (S)—N-(3-(3,4-dihydroisoquinolin-2(1H)-yl)-2-hydroxypropyl)-6-(1-isopropyl-1H-1,2,3-triazol-4-yl)imidazo[1,2-a]pyridine-2-carboxamide] | 0.01 to 1 µM
0.01 to 1 µM | Cn1ccc(-c2ccc3nc(C(=O)NC[C@H](O)CN4CCc5ccccc5C4)cn3c2)cc1=O [Example 35, (S)—N-(3-(3,4-dihydroisoquinolin-2(1H)-yl)-2-hydroxypropyl)-6-(1-methyl-2-oxo-1,2-dihydropyridin-4-yl)imidazo[1,2-a]pyridine-2-carboxamide] | 0.01 to 1 µM
0.01 to 1 µM | Cn1cc(-c2ccc3nc(C(=O)NC[C@H](O)CN4CCc5ccccc5C4)cn3c2)ccc1=O [Example 34, (S)—N-(3-(3,4-dihydroisoquinolin-2(1H)-yl)-2-hydroxypropyl)-6-(1-methyl-6-oxo-1,6-dihydropyridin-3-yl)imidazo[1,2-a]pyridine-2-carboxamide] | 0.01 to 1 µM
0.01 to 1 µM | O=C(NC[C@H](O)CN1CCc2ccccc2C1)c1cn2cc(-c3ccc(Cl)cn3)ccc2n1 [Example 33, (S)-6-(5-chloropyridin-2-yl)-N-(3-(3,4-dihydroisoquinolin-2(1H)-yl)-2-hydroxypropyl)imidazo[1,2-a]pyridine-2-carboxamide] | 0.01 to 1 µM
1 to 5 µM | Cn1ccc(-c2cn3cc(C(=O)NC[C@H](O)CN4CCc5cc(F)ccc5C4)nc3cn2)cc1=O [Example 85, (S)—N-(3-(6-fluoro-3,4-dihydroisoquinolin-2(1H)-yl)-2-hydroxypropyl)-6-(1-methyl-2-oxo-1,2-dihydropyridin-4-yl)imidazo[1,2-a]pyrazine-2-carboxamide] | 1 to 5 µM
0.01 to 1 µM | O=C(NC[C@H](O)CN1CCc2ccccc2C1)c1cn2cc(C(F)(F)F)ncc2n1 [Example 53, (S)—N-(3-(3,4-dihydroisoquinolin-2(1H)-yl)-2-hydroxypropyl)-6-(trifluoromethyl)imidazo[1,2-a]pyrazine-2-carboxamide] | 1 to 5 µM
1 to 5 µM | Cc1cn2c(C)c(C(=O)NC[C@H](O)CN3CCc4ccccc4C3)nc2cn1 [Example 55, (S)—N-(3-(3,4-dihydroisoquinolin-2(1H)-yl)-2-hydroxypropyl)-3,6-dimethylimidazo[1,2-a]pyrazine-2-carboxamide] | 1 to 5 µM
1 to 5 µM | O=C(NC[C@H](O)CN1CCc2ccccc2C1)c1cn2cc(C3(O)COC3)ccc2n1 [Example 61, (S)—N-(3-(3,4-dihydroisoquinolin-2(1H)-yl)-2-hydroxypropyl)-6-(3-hydroxyoxetan-3-yl)imidazo[1,2-a]pyridine-2-carboxamide] | 1 to 5 µM
0.01 to 1 µM | O=C(NC[C@@H](O)[C@H](O)CN1CCc2ccccc2C1)c1cn2cc(C(F)(F)F)ccc2n1 [Example 77, N-((2R,3R)-4-(3,4-dihydroisoquinolin-2(1H)-yl)-2,3-dihydroxybutyl)-6-(trifluoromethyl)imidazo[1,2-a]pyridine-2-carboxamide] | 0.01 to 1 µM
0.01 to 1 µM | O=C(NC[C@H](O)CN1CCc2ccccc2C1)c1cn2cc(C3CCOCC3)ccc2n1 [Example 26, (S)—N-(3-(3,4-dihydroisoquinolin-2(1H)-yl)-2-hydroxypropyl)-6-(tetrahydro-2H-pyran-4-yl)imidazo[1,2-a]pyridine-2-carboxamide] | 0.01 to 1 µM
1 to 5 µM | NS(=O)(=O)c1ccc2nc(C(=O)NC[C@H](O)CN3CCc4ccccc4C3)cn2c1 [Example 40, (S)—N-(3-(3,4-dihydroisoquinolin-2(1H)-yl)-2-hydroxypropyl)-6-sulfamoylimidazo[1,2-a]pyridine-2-carboxamide] | > 5 µM
0.01 to 1 µM | O=C(NC[C@H](O)CN1CCc2ccccc2C1)c1cn2cc(-c3cnn(C4COC4)c3)ccc2n1 [Example 22, (S)—N-(3-(3,4-dihydroisoquinolin-2(1H)-yl)-2-hydroxypropyl)-6-(1-(oxetan-3-yl)-1H-pyrazol-4-yl)imidazo[1,2-a]pyridine-2-carboxamide] | 0.01 to 1 µM
